These results are taken from publication PMC4796657, “Functional identification of SLC43A3 as an equilibrative nucleobase transporter involved in purine salvage in mammals” (Scientific Reports, 2015).

Broadly, the IC50 is the concentration that inhibits the measured activity by half. Usually inhibition stands for the share of the control response that was lost under treatment.

Structures are written as SMILES.

The target in the first test is T1, SLC43A3 (equilibrative nucleobase transporter 1, ENBT1) (Homo sapiens, UniProt Q8NBI5).
T1 sequence (Q8NBI5 1-491): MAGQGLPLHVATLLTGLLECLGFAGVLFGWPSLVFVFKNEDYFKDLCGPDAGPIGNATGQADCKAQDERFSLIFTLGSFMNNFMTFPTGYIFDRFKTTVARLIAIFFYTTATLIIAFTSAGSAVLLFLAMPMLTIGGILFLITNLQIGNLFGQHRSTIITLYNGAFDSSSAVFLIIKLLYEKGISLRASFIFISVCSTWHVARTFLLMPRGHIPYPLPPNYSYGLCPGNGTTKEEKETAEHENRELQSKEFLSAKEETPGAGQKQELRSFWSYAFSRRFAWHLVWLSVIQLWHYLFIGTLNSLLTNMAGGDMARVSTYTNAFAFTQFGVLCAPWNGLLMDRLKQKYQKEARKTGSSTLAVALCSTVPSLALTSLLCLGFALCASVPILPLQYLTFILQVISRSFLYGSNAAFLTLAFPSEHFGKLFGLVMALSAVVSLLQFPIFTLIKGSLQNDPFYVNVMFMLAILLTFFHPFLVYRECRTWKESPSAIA
The test is described as follows: inhibition of ENBT1-mediated [3H]adenine uptake; radiolabeled uptake (apparent Km […]). In kind it is cell-based. More on the design: full length, 491 amino acid residues, stably expressed in MDCKII cells.
Conditions: not given
In the case of `Nc1nc2nc[nH]c2c(=O)[nH]1` [guanine], the IC50 amounted to 70 µM.

A further test addresses T1, SLC43A3 (equilibrative nucleobase transporter 1, ENBT1). Put plainly: cell-based.
Conditions: not given
`O=c1[nH]cnc2nc[nH]c12` [hypoxanthine]: the IC50 turned out to be 350 µM.

For the next test the target is unchanged. Put plainly: cell-based. More on the design: full length, 491 amino acid residues, stably expressed in MDCKII cells; species or system MDCKII stably expressing ENBT1; inhibition of ENBT1-specific [3H]adenine (5 nM) uptake, 40 s, 22 C, mock-subtracted, scintillation counting. The settings on record: MDCK-II; [3H]adenine 5 nM, pH 7.4, 22 C, 40 s; read-out: Uptake rate (% of control). As for the experimental part:
MDCKII cells stably expressing ENBT1 (1.5 × 10^5 cells/well initially) were grown on 24-well plates for 72 h. The cells in each well were preincubated in 0.25 ml of substrate-free uptake buffer (140 mM NaCl, 5 mM KCl, 0.4 mM KH2PO4, 0.8 mM MgSO4, 1.0 mM CaCl2, 25 mM glucose, and 10 mM HEPES, pH 7.4) for 5 min, unless otherwise indicated. Uptake assays were started by replacing the substrate-free uptake buffer for preincubation with one containing the radioisotope-labeled substrate (0.25 ml). All of the procedures were conducted at 22 °C or 37 °C. Assays were stopped by addition of ice-cold substrate-free uptake buffer (2 ml), and the cells were washed two times with 2 ml of the same buffer. The cells were solubilized in 0.5 ml of 0.2 M NaOH solution containing 0.5% SDS at room temperature for 1 h, and the associated radioactivity was measured by [compound left out] scintillation counting. Cellular protein content was determined by the method of Lowry et al.[28] using bovine serum albumin as the standard. Uptake assays were also conducted in mock cells, which were transfected with empty pCI-neo vector, to estimate nonspecific uptake. To further explore the substrate specificity of ENBT1, we examined the effect of various compounds (10 μM for decynium-22 and 200 μM for the others) on the ENBT1-mediated uptake of [^3H]adenine in SLC43A3 cells (Fig. 2D). […] Because these two molecules were transported by SLC43A3 minimally (Fig. 2A), they are likely to be recognized as very poor substrates with affinities extremely low to act as competitive inhibitors. […] We also examined the effect of various amino acids (5 mM), as ENBT1 is a member of the amino acid transporter family; however, none of them affected the adenine uptake activity of SLC43A3 cells (see Supplementary Table S1 online), supporting a previo
In the case of `N[C@@H](Cc1c[nH]c2ccccc12)C(=O)O` [Tryptophan], the remaining activity at 5000 µM is 95.6 ± 1.8%.

With `NC(=O)CC[C@H](N)C(=O)O` [Glutamine], the remaining activity at 5000 µM was found to be 105 ± 1.3%.

For the compound `CSCC[C@H](N)C(=O)O` [Methionine], the remaining activity at 5000 µM was found to be 95.8 ± 1.4%. Same read-out and setting: the result for `C[C@@H](O)[C@H](N)C(=O)O` [Threonine] reads 99.7 ± 0.7%; that for `CC(C)[C@H](N)C(=O)O` [Valine], 101 ± 1.6%; that for `NCCCC[C@H](N)C(=O)O` [Lysine], 96.6 ± 1.2%. Take `N[C@@H](Cc1ccccc1)C(=O)O` [Phenylalanine]: the remaining activity at 5000 µM turned out to be 98.7 ± 1.1%. For `N[C@@H](Cc1ccc(O)cc1)C(=O)O` [Tyrosine], the remaining activity at 5000 µM was 105.7 ± 1%.

In the case of `N=C(N)NCCC[C@H](N)C(=O)O` [Arginine], the remaining activity at 5000 µM is 95.8 ± 1.7%.

With `O=C(O)[C@@H]1CCCN1` [Proline], the remaining activity at 5000 µM stood at 103.4 ± 1%. Same read-out and setting: the result for `CC[C@H](C)[C@H](N)C(=O)O` [Isoleucine] reads 100 ± 1.3%; that for `N[C@@H](CS)C(=O)O` [Cysteine], 104 ± 0.8%; that for `N[C@@H](CCC(=O)O)C(=O)O` [Glutamate], 103 ± 1.6%. Still for that read-out and setting: the result for `N[C@@H](CO)C(=O)O` [Serine] reads 105 ± 2.2%; that for `C[C@H](N)C(=O)O` [Alanine], 103 ± 4%. On to `N[C@@H](Cc1c[nH]cn1)C(=O)O` [Histidine], for which the remaining activity at 5000 µM was 101 ± 1.8%.

As to `NC(=O)C[C@H](N)C(=O)O` [Asparagine], the remaining activity at 5000 µM worked out at 103 ± 2.7%.

On to `CC(C)C[C@H](N)C(=O)O` [Leucine], for which the remaining activity at 5000 µM worked out at 94 ± 2.5%. Still for that read-out and setting: the result for `N[C@@H](CC(=O)O)C(=O)O` [Aspartate] reads 99.9 ± 1.3%.

The target is the same in the next test. Put plainly: inhibition of ENBT1-mediated [3H]hypoxanthine uptake; radiolabeled uptake (apparent Km […]). Type of test: cell-based. More on the design: full length, 491 amino acid residues, stably expressed in MDCKII cells.
Conditions: not given
As for `Nc1ncnc2nc[nH]c12` [adenine], the IC50 amounted to 13 µM.

The target is the same in the next test. Put plainly: inhibition of ENBT1-specific [3H]adenine uptake at […]. Type of test: cell-based. Also noted: full length, 491 amino acid residues, stably expressed in MDCKII cells.
Conditions: not given
With `c1ncc2nc[nH]c2n1` [purine], the “inhibition of ENBT1-specific [3H]adenine uptake at 200 uM” value is “purine and its several analogs, such as 6-thioguanine and mercaptopurine, showed inhibitory activities, suggesting that they are also substrates”. Take `S=c1[nH]cnc2nc[nH]c12` [mercaptopurine]: the “inhibition of ENBT1-specific [3H]adenine uptake at 200 uM” value is “purine and its several analogs, such as 6-thioguanine and mercaptopurine, showed inhibitory activities, suggesting that they are also substrates”. On the same count and under the same terms, the result for `Nc1nc2nc[nH]c2c(=S)[nH]1` [6-thioguanine] reads “purine and its several analogs, such as 6-thioguanine and mercaptopurine, showed inhibitory activities, suggesting that they are also substrates”.

The next test shares this target. Put plainly: inhibition of ENBT1-specific [3H]adenine uptake, about […] at […]. Type of test: cell-based. Also noted: full length, 491 amino acid residues, stably expressed in MDCKII cells. As to conditions: read-out: % inhibition at 200 μM.
With `O=[N+]([O-])c1ccc(CSc2ncnc3c2ncn3C2OC(CO)C(O)C2O)cc1` (centres unmarked) [nitrobenzylthioinosine], the inhibition at 200 µM is ~40%.
